In the NIST ThermoML archive (doi:10.1021/je100315g):

Assays:
[1] = xn = mol fraction of the nth substance listed; settings: 101 kPa, Liquid
[2] = 101 kPa, Liquid

CC#N [acetonitrile] + CCCC[n+]1ccn(C)c1.O=S(=O)([N-]S(=O)(=O)C(F)(F)F)C(F)(F)F
[1], x2 = 0
Settings	mass density [kg/m3]
293.15 K	781.89
298.15 K	776.52
303.13 K	771.12
308.15 K	765.68
313.15 K	760.2

C[S+](C)[O-] [dimethyl sulfoxide]
[2]
Settings	mass density [kg/m3]
293.15 K	1100.31
298.15 K	1095.3
303.13 K	1090.31
308.15 K	1085.27
313.15 K	1080.27

CCn1cc[n+](C)c1.O=S(=O)([N-]S(=O)(=O)C(F)(F)F)C(F)(F)F
[2]
Settings	mass density [kg/m3]
293.15 K	1522.08
298.15 K	1516.96
303.13 K	1511.85
308.15 K	1506.8
313.15 K	1501.74

CCn1cc[n+](C)c1.O=S(=O)([N-]S(=O)(=O)C(F)(F)F)C(F)(F)F + C1CCOC1
mass density [kg/m3], [1]
Settings	x1 = 0.1037	x1 = 0.2024	x1 = 0.3255	x1 = 0.3841	x1 = 0.4425	x1 = 0.5469	x1 = 0.6863	x1 = 0.7697	x1 = 0.9177	x1 = 1
293.15 K	1065.02	1178.77	1278.55	1315.59	1347.51	1395.4	1444.8	1469.16	1505.22	1522.08
298.15 K	1061.32	1173.6	1274.14	1310.96	1342.57	1390.69	1440.1	1464.51	1500.21	1516.96
303.13 K	1056.14	1168.46	1269.66	1306.48	1337.7	1385.78	1435.45	1459.45	1495.17	1511.85
308.15 K	1051.2	1163.55	1264.42	1301.8	1332.56	1381.31	1430.62	1454.67	1490.13	1506.8

CC#N [acetonitrile] + CCn1cc[n+](C)c1.O=S(=O)([N-]S(=O)(=O)C(F)(F)F)C(F)(F)F
[1], x2 = 0
Settings	mass density [kg/m3]
293.15 K	781.89
298.15 K	776.52
303.13 K	771.12
308.15 K	765.68
313.15 K	760.2

C1CCOC1 [tetrahydrofuran] + CCn1cc[n+](C)c1.O=S(=O)([N-]S(=O)(=O)C(F)(F)F)C(F)(F)F
[1], x2 = 0
Settings	mass density [kg/m3]
293.15 K	887.41
298.15 K	881.98
303.13 K	876.47
308.15 K	870.96

CCn1cc[n+](C)c1.O=S(=O)([N-]S(=O)(=O)C(F)(F)F)C(F)(F)F + CC#N
mass density [kg/m3], [1]
Settings	x1 = 0.0533	x1 = 0.1886	x1 = 0.337	x1 = 0.4724	x1 = 0.652	x1 = 0.8245	x1 = 0.924	x1 = 1
293.15 K	946.96	1183.76	1316.94	1390.06	1452.53	1492.64	1510.36	1522.08
298.15 K	941.54	1178.5	1311.68	1384.82	1447.4	1487.58	1505.26	1516.96
303.13 K	936.1	1173.4	1306.48	1379.62	1442.24	1482.39	1500.2	1511.85
308.15 K	930.61	1168.18	1301.14	1374.57	1437.1	1477.35	1495.13	1506.8
313.15 K	925.26	1162.68	1296.39	1369.51	1432.02	1472.28	1490.11	1501.74

CCCC[n+]1ccn(C)c1.O=S(=O)([N-]S(=O)(=O)C(F)(F)F)C(F)(F)F + CC#N
mass density [kg/m3], [1]
Settings	x1 = 0.0971	x1 = 0.2033	x1 = 0.2989	x1 = 0.471	x1 = 0.6261	x1 = 0.7423	x1 = 0.8983	x1 = 1
293.15 K	1034.65	1175.45	1252.06	1335.15	1380.43	1404.79	1429.03	1441.63
298.15 K	1029.33	1170.35	1247.09	1330.18	1375.57	1400.01	1424.12	1436.83
303.13 K	1024.05	1165.12	1242.32	1325.41	1370.72	1395.36	1419.28	1431.98
308.15 K	1019.47	1160.25	1237.21	1320.49	1365.88	1390.45	1414.54	1427.16
313.15 K	1014.26	1155.05	1232.4	1315.67	1361.14	1385.64	1409.73	1422.36

C1CCOC1 [tetrahydrofuran]
[2]
Settings	mass density [kg/m3]
293.15 K	887.41
298.15 K	881.98
303.13 K	876.47
308.15 K	870.96

C[S+](C)[O-] [dimethyl sulfoxide] + CCn1cc[n+](C)c1.O=S(=O)([N-]S(=O)(=O)C(F)(F)F)C(F)(F)F
[1], x2 = 0
Settings	mass density [kg/m3]
293.15 K	1100.31
298.15 K	1095.3
303.13 K	1090.31
308.15 K	1085.27
313.15 K	1080.27
